Experiments:
[1] = system: HCT-116 (colorectal carcinoma) cell line; assay: CellTiter-Glo luminescent cell viability assay, HCT-116; type: cell-based, human; conditions: Homo sapiens; for viability at 4 µM: HCT-116, compound at 4 μM; for viability at 4 µM / viability at 10 µM: 72 h; for viability at 10 µM: HCT-116, compound at 10 μM; for EC50: HCT-116 cell line, 72 h incubation, CellTiter-Glo, read-out: EC50, growth inhibition of HCT-116
Outline: (§1)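 Adherent cells grow overnight, or suspension cells are seeded 1 h ahead; compound dilutions are then added and plates incubated 72 h at 37 °C. After 30 min at room temperature, CellTiter-Glo reagent is added and luminescence recorded. EC50 derives from signal relative to diluent control.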

[2] = system: Huh7 (hepatocellular carcinoma) cell line; assay: CellTiter-Glo luminescent cell viability assay, Huh7; type: cell-based, human; conditions: Homo sapiens, Huh-7; for viability at 4 µM: Huh7, compound at 4 μM; for viability at 4 µM / viability at 10 µM: 72 h; for viability at 10 µM: Huh7, compound at 10 μM; for EC50: Huh7 cell line, 72 h incubation, CellTiter-Glo, read-out: EC50, growth inhibition of Huh7
Outline: (§2)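 Luminescent signal, normalised to diluent-treated cultures, defines % viability; EC50 is the concentration lowering it to 50%. Cells had been exposed to compound for 72 h at 37 °C in medium with 10% FBS, at a constant H2O or DMSO percentage.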

[3] = system: 786-O (renal adenocarcinoma) cell line; assay: CellTiter-Glo luminescent cell viability assay, 786-O; type: cell-based, human; conditions: Homo sapiens, 786-0; for EC50: 786-O cell line, 72 h incubation, CellTiter-Glo, read-out: EC50, growth inhibition of 786-O; for viability at 4 µM / viability at 10 µM: 786-O, 72 h; for viability at 4 µM: compound at 4 μM; for viability at 10 µM: compound at 10 μM
Outline: as §1

[4] = system: A375 (malignant melanoma) cell line; assay: CellTiter-Glo luminescent cell viability assay, A375; type: cell-based, human; conditions: Homo sapiens, A-375; for viability at 4 µM: A375, compound at 4 μM; for viability at 4 µM / viability at 10 µM: 72 h; for viability at 10 µM: A375, compound at 10 μM; for EC50: A375 cell line, 72 h incubation, CellTiter-Glo, read-out: EC50, growth inhibition of A375
Outline: as §1

[5] = system: HepG2 (hepatocellular carcinoma) cell line; assay: CellTiter-Glo luminescent cell viability assay, HepG2; type: cell-based, human; conditions: Homo sapiens; for viability at 4 µM / viability at 10 µM: HepG2, HepG, 72 h; for viability at 4 µM: compound at 4 μM; for viability at 10 µM: compound at 10 μM; for EC50: HepG2 cell line, 72 h incubation, CellTiter-Glo, read-out: EC50, growth inhibition of HepG2
Outline: as §2

[6] = system: PANC-1 (prancreatic carcinoma) cell line; assay: CellTiter-Glo luminescent cell viability assay, PANC-1; type: cell-based; conditions: Homo sapiens; for viability at 4 µM: PANC-1, 4 μM; for viability at 4 µM / viability at 10 µM: 72 h, % of signal of diluent-treated cultures; for viability at 10 µM: PANC-1, 10 μM; for EC50: PANC-1 cell line, 72 h incubation, CellTiter-Glo, read-out: EC50 (growth inhibition assay of PANC-1 cell line)
Outline: as §2

[7] = system: MOLM-14 (acute myeloid leukemia) cell line; assay: CellTiter-Glo luminescent cell viability assay, MOLM-14; type: cell-based, human; conditions: Homo sapiens; for viability at 4 µM: MOLM-14, compound at 4 μM; for viability at 4 µM / viability at 10 µM: 72 h; for viability at 10 µM: MOLM-14, compound at 10 μM; for EC50: MOLM-14 cell line, 72 h incubation, CellTiter-Glo, read-out: EC50, growth inhibition of MOLM-14
Outline: as §2

EC50 [1]	EC50 [2]	EC50 [3]	EC50 [4]	EC50 [5]	EC50 [7]	SMILES	viability at 4 µM [1]	viability at 10 µM [1]	viability at 4 µM [2]	viability at 10 µM [2]	viability at 4 µM [3]	viability at 10 µM [3]	viability at 4 µM [4]	viability at 10 µM [4]	viability at 4 µM [5]	viability at 10 µM [5]	viability at 4 µM [6]	viability at 10 µM [6]	viability at 4 µM [7]	viability at 10 µM [7]	other results
0.5 to 5 µM	0.5 to 5 µM	0.5 to 5 µM	0.5 to 5 µM	0.5 to 5 µM	0.5 to 5 µM	Cc1ccc2nc(NCc3ccc(Cl)cc3)c(C#N)c(N3CCC(NC(C)(C)C)CC3)c2c1 [Compound 418CN, 2-(4-chlorobenzylamino)-3-cyano-4-[4-(tert-butylamino)piperidin-1-yl]-6-methylquinoline]	0.2%	0.2%	50.5%	0.3%	0.9%	0.2%	0.3%	0.3%	5%	0.2%	79.8%	0.4%	3.8%	0.3%	EC50 [6]: 5 to 10 µM
–	–	–	–	–	–	N#Cc1c(NCc2ccc(Cl)cc2)nc2ccccc2c1N1CCC(Oc2ccccc2)CC1 [Compound 2940CN, 2-(4-chlorobenzylamino)-3-cyano-4-(4-phenoxypiperidin-1-yl)quinoline]	92.9%	82.9%	97.3%	88.9%	97.1%	91.7%	104%	98.3%	89.7%	79.4%	103%	102%	102%	89.1%	–
–	–	–	–	–	–	Cc1ccc(OC2CCN(c3c(C#N)c(NCc4ccc(Cl)cc4)nc4ccccc34)CC2)cc1 [Compound 2944CN, 2-(4-chlorobenzylamino)-3-cyano-4-[4-(p-tolyloxy)piperidin-1-yl]quinoline]	32.8%	29.1%	93.9%	89%	96%	95.5%	96.9%	87.1%	107%	84%	111%	112%	104%	92.1%	–
0.5 to 5 µM	0.5 to 5 µM	0.5 to 5 µM	0.5 to 5 µM	0.5 to 5 µM	5 to 10 µM	N#Cc1c(NCc2ccc(Cl)cc2)nc2ccccc2c1N1CCCC(N)C1 (centres unmarked) [Compound 3156CN, 2-(4-chlorobenzylamino)-3-cyano-4-(3-aminopiperidin-1-yl)quinoline]	52%	0.5%	83%	0.6%	77.8%	0.6%	10%	0.4%	32.6%	0.5%	102%	0.9%	92.8%	0.6%	EC50 [6]: 5 to 10 µM
0.5 to 5 µM	5 to 10 µM	5 to 10 µM	0.5 to 5 µM	0.5 to 5 µM	5 to 10 µM	CNC1CCCN(c2c(C#N)c(NCc3ccc(Cl)cc3)nc3ccccc23)C1 (centres unmarked) [Compound 3158CN, 2-(4-chlorobenzylamino)-3-cyano-4-[3-(methylamino)piperidin-1-yl]quinoline]	74.2%	0.4%	86.4%	0.5%	88.4%	0.5%	70.9%	0.3%	84.6%	0.4%	107%	53.1%	91.5%	0.6%	EC50 [6]: 5 to 10 µM
0.5 to 5 µM	5 to 10 µM	5 to 10 µM	0.5 to 5 µM	0.5 to 5 µM	5 to 10 µM	CC(C)NC1CCCN(c2c(C#N)c(NCc3ccc(Cl)cc3)nc3ccccc23)C1 (centres unmarked) [Compound 3160CN, 2-(4-chlorobenzylamino)-3-cyano-4-[3-(isopropylamino)piperidin-1-yl]quinoline]	57.7%	0.4%	80.8%	0.5%	65.2%	0.5%	18.2%	0.4%	62.1%	0.5%	96.1%	1.2%	88.7%	0.6%	EC50 [6]: 5 to 10 µM
0.5 to 5 µM	0.5 to 5 µM	0.5 to 5 µM	0.5 to 5 µM	0.5 to 5 µM	0.5 to 5 µM	CN1CCC(NC2CCCN(c3c(C#N)c(NCc4ccc(Cl)cc4)nc4ccccc34)C2)CC1 (centres unmarked) [Compound 3162CN, 2-(4-chlorobenzylamino)-3-cyano-4-{3-[(1-methylpiperidin-4-yl)amino]piperidin-1-yl}quinoline]	0.3%	0.2%	0.5%	0.2%	0.5%	0.3%	0.4%	0.2%	0.3%	0.2%	51.6%	0.4%	0.5%	0.3%	–
–	–	–	–	–	–	CN(C)C1CCCN(c2c(C#N)c(NCc3ccc(Cl)cc3)nc3ccccc23)C1 (centres unmarked) [Compound 3164CN, 2-(4-chlorobenzylamino)-3-cyano-4-[3-(dimethylamino)piperidin-1-yl]quinoline]	91.2%	38.4%	91.9%	51.1%	97.1%	64.1%	89.2%	39.3%	101%	52.9%	98.7%	69.6%	113%	74.6%	–
0.5 to 5 µM	0.5 to 5 µM	0.5 to 5 µM	0.5 to 5 µM	5 to 10 µM	5 to 10 µM	CN1CCN(C2CCCN(c3c(C#N)c(NCc4ccc(Cl)cc4)nc4ccccc34)C2)CC1 (centres unmarked) [Compound 3168CN, 2-(4-chlorobenzylamino)-3-cyano-4-[3-(4-methylpiperazin-1-yl)piperidin-1-yl]quinoline]	40.7%	0.5%	80.1%	0.7%	75.4%	0.6%	61%	0.8%	87.8%	0.6%	100%	22.3%	105%	0.8%	EC50 [6]: 5 to 10 µM

Source: US10577362B2, “Substituted 2, 4-diamino-quinoline derivatives for use in the treatment of proliferative diseases” (GENOSCIENCE PHARMA, priority 2016, dated 2020)
